# Laboratory results published in PubChem BioAssay AID1963864 (Molecular Pharmacology Branch, DTP, NCI, 2024).
# pIC50: −log10 of the molar value.
# Test system: KRAS PDC multicell spheroid viability
# Experiment: Anticancer human tumor 521955-158-R6-J3-PDC patient-derived pancreatic carcinoma cell line growth inhibition [KRAS2]
# Details: for viability, T/C: stronger effect = lower value
# Source text: Multicellular complex tumor spheroid response to RAS pathway inhibitors in combination with a targeted agents in patient-derived cell lines with oncogenic KRAS variants from multiple cancer types
# A high-throughput screen of multi-cell type tumor spheroids was designed to identify active combinations of targeted small molecules and KRAS pathway inhibitors. Complex spheroids include a stromal component modeled by human endothelial cells (HUVEC) and fibroblasts modeled by human mesenchymal stem cells (MSCs). The concentration ranges selected for each drug and investigational agent were based upon clinically achievable concentrations if the clinical Cmax of the agent was known.
# Compounds. The drugs and investigational agents: BI-3406 (NSC825286), BAY-293 (NSC824723), batoprotafib (TNO155; NSC825523), sotorasib (AMG 510; NSC818433), MRTX1257 (NSC819558), elimusertib (BAY 1895344; NSC800525), molibresib (GSK525762; NSC774829), temuterkib (LY3214996; NSC803410), venetoclax (NSC766270), alisertib (NSC759677), olaparib (NSC753686), talazoparib (NSC767125), erdafitinib (NSC781556), ipatasertib (NSC767898), cabozantinib (NSC761068), nintedanib (NSC756659), abemaciclib (NSC768073), docetaxel (NSC628503), trametinib (NSC758246), and sapanisertib (NSC764658) were obtained from the National Cancer Institute (NCI) Developmental Therapeutics Program Chemical Repository. The FDA-approved anticancer drug set is available from the Developmental Therapeutics Program. […] The stock solutions were prepared in dimethyl sulfoxide (DMSO, Sigma-Aldrich, St. Louis, MO, cat. D2650) at 800-fold the tested concentration and stored at -70 degrees C prior to their use. All drugs and investigational agents were tested over a range starting from a high concentration at or near the clinical Cmax and decreasing in half-log increments. If the clinical Cmax for an agent had not been determined, the highest concentration tested was 10 microM.
# Cell Culture. All cells were maintained in an incubator at 37 degrees C and 5% CO2 with 95% humidity. The PDC lines were cultured according to standard operating procedures established by the NCI PDMR (https://pdmr.cancer.gov/sops/default.htm). Briefly, all PDCs were thawed and cultured in Matrigel-coated flasks prepared with a working solution of 1X Ham's F-12 nutrient mix, without supplementation (Invitrogen, Waltham, MA, cat. 11765054), 100 U/mL penicillin-streptomycin (Invitrogen, cat. 15140122), and 2.5% Matrigel (Corning Inc., Corning, NY, cat. 354248) for the first three passages. All PDCs were cultured in complete DMEM/F-12 media containing advanced DMEM/F-12 (Invitrogen, cat. 12634028), 4.9% defined fetal bovine serum, heat inactivated (HyClone Laboratories Inc., Logan, UT, cat. SH30070.03HI), 389 ng/mL hydrocortisone (Sigma-Aldrich, cat. H4001), 9.7 ng/mL human EGF recombinant protein (Invitrogen, cat. PHG0313), 23.4 microg/mL adenine (Sigma-Aldrich, cat. A2786), 97.3 U/mL penicillin-streptomycin (Invitrogen, cat. 15140122), 1.9 mM L-glutamine (Invitrogen, cat. 25030081), and 9.7 microM Y-27632 dihydrochloride (Tocris Bioscience, Bristol, United Kingdom, cat. 1254). The PDCs were cultured in complete DMEM/F12 media without 9.7 microM Y-27632 dihydrochloride for at least two passages prior to the screen. The established cell line HOP-62 was cultured in RPMI 1640 medium, HEPES (Invitrogen, cat. 22400105) with 10% defined fetal bovine serum (HyClone Laboratories Inc., cat. SH30070.03) and 2 mM L-glutamine (Invitrogen, cat. 25030081). The pooled donor HUVEC were cultured in endothelial cell growth medium 2 (PromoCell, Heidelberg, Germany, cat. C-22011) and the hMSC were cultured in mesenchymal stem cell growth medium 2 (PromoCell, cat. C-28009). For all experiments, HUVEC and hMSC were used at passages </=5, while the malignant cell lines were used at passages </=15. […]
# [1] = curve of first compound, second compound 0.1 µM
# [2] = curve of first compound, second compound 0.316 µM
# [3] = curve of first compound, second compound 1 µM
# [4] = curve of first compound, second compound 3.16 µM
# [5] = second compound 0.1 µM, first compound 0.0316 µM
# [6] = second compound 0.1 µM, first compound 0.1 µM
# [7] = second compound 0.316 µM, first compound 0.0316 µM
# [8] = second compound 0.316 µM, first compound 0.1 µM
# [9] = second compound 1 µM, first compound 0.0316 µM
# [10] = second compound 1 µM, first compound 0.1 µM
# [11] = second compound 3.16 µM, first compound 0.0316 µM
# [12] = second compound 3.16 µM, first compound 0.1 µM
# [13] = curve of first compound, second compound 10 µM
# [14] = second compound 0.1 µM, first compound 0.000316 µM
# [15] = second compound 0.1 µM, first compound 0.001 µM
# [16] = second compound 0.1 µM, first compound 0.00316 µM
# [17] = second compound 0.1 µM, first compound 0.01 µM
# [18] = second compound 0.316 µM, first compound 0.000316 µM
# [19] = second compound 0.316 µM, first compound 0.001 µM
# [20] = second compound 0.316 µM, first compound 0.00316 µM
# [21] = second compound 0.316 µM, first compound 0.01 µM
# [22] = second compound 1 µM, first compound 0.000316 µM
# [23] = second compound 1 µM, first compound 0.001 µM
# [24] = second compound 1 µM, first compound 0.00316 µM
# [25] = second compound 1 µM, first compound 0.01 µM
# [26] = second compound 3.16 µM, first compound 0.000316 µM
# [27] = second compound 3.16 µM, first compound 0.001 µM
# [28] = second compound 3.16 µM, first compound 0.00316 µM
# [29] = second compound 3.16 µM, first compound 0.01 µM
# [30] = second compound 10 µM, first compound 0.000316 µM
# [31] = second compound 10 µM, first compound 0.001 µM
# [32] = second compound 10 µM, first compound 0.00316 µM
# [33] = second compound 10 µM, first compound 0.01 µM
# [34] = second compound 10 µM, first compound 0.0316 µM
# 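Note: drug exposure lasted seven days.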
# 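Throughout, for viability, T/C: 100% = DMSO vehicle wells and lower means fewer viable cells.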
smiles,measurement,setting,value
COC(=O)c1ccc2c(C(=Nc3ccc(N(C)C(=O)CN4CCN(C)CC4)cc3)c3ccccc3)c(O)[nH]c2c1 + C=CC(=O)N1CCN(c2nc(OCC3CCCN3C)nc3c2CCN(c2cccc4cccc(C)c24)C3)CC1CC#N,pIC50,"curve of first compound, second compound 0.0316 µM",5.51
same,pIC50,[1],5.55
same,pIC50,[2],5.55
same,pIC50,[3],5.74
same,pIC50,[4],> 7.50
same,"viability, T/C","second compound 0.0316 µM, first compound 0.0316 µM",96.2%
same,"viability, T/C","second compound 0.0316 µM, first compound 0.1 µM",110%
same,"viability, T/C","second compound 0.0316 µM, first compound 0.316 µM",116%
same,"viability, T/C","second compound 0.0316 µM, first compound 1 µM",123%
same,"viability, T/C","second compound 0.0316 µM, first compound 3.16 µM",48.8%
same,"viability, T/C","second compound 0.0316 µM, first compound 10 µM",0.2%
same,"viability, T/C",[5],91.8%
same,"viability, T/C",[6],116%
same,"viability, T/C","second compound 0.1 µM, first compound 0.316 µM",102%
same,"viability, T/C","second compound 0.1 µM, first compound 1 µM",111%
same,"viability, T/C","second compound 0.1 µM, first compound 3.16 µM",44.3%
same,"viability, T/C","second compound 0.1 µM, first compound 10 µM",1.53%
same,"viability, T/C",[7],79.7%
same,"viability, T/C",[8],102%
same,"viability, T/C","second compound 0.316 µM, first compound 0.316 µM",103%
same,"viability, T/C","second compound 0.316 µM, first compound 1 µM",106%
same,"viability, T/C","second compound 0.316 µM, first compound 3.16 µM",45.1%
same,"viability, T/C","second compound 0.316 µM, first compound 10 µM",1.91%
same,"viability, T/C",[9],74.3%
same,"viability, T/C",[10],75.5%
same,"viability, T/C","second compound 1 µM, first compound 0.316 µM",90.2%
same,"viability, T/C","second compound 1 µM, first compound 1 µM",95.4%
same,"viability, T/C","second compound 1 µM, first compound 3.16 µM",19.1%
same,"viability, T/C","second compound 1 µM, first compound 10 µM",1.01%
same,"viability, T/C",[11],36.9%
same,"viability, T/C",[12],31.4%
same,"viability, T/C","second compound 3.16 µM, first compound 0.316 µM",37.8%
same,"viability, T/C","second compound 3.16 µM, first compound 1 µM",5.71%
same,"viability, T/C","second compound 3.16 µM, first compound 3.16 µM",1.1%
same,"viability, T/C","second compound 3.16 µM, first compound 10 µM",0.76%
Cn1ncnc1[C@H]1c2n[nH]c(=O)c3cc(F)cc(c23)N[C@@H]1c1ccc(F)cc1 + C=CC(=O)N1CCN(c2nc(=O)n(-c3c(C)ccnc3C(C)C)c3nc(-c4c(O)cccc4F)c(F)cc23)C(C)C1,pIC50,[1],< 7.00
same,pIC50,[2],< 7.00
same,pIC50,[3],< 7.00
same,pIC50,[4],< 7.00
same,pIC50,[13],< 7.00
same,"viability, T/C",[14],106%
same,"viability, T/C",[15],109%
same,"viability, T/C",[16],101%
same,"viability, T/C",[17],107%
same,"viability, T/C",[5],96.5%
same,"viability, T/C",[6],95%
same,"viability, T/C",[18],110%
same,"viability, T/C",[19],102%
same,"viability, T/C",[20],116%
same,"viability, T/C",[21],94.9%
same,"viability, T/C",[7],105%
same,"viability, T/C",[8],108%
same,"viability, T/C",[22],114%
same,"viability, T/C",[23],109%
same,"viability, T/C",[24],118%
same,"viability, T/C",[25],97.5%
same,"viability, T/C",[9],110%
same,"viability, T/C",[10],118%
same,"viability, T/C",[26],102%
same,"viability, T/C",[27],104%
same,"viability, T/C",[28],101%
same,"viability, T/C",[29],100%
same,"viability, T/C",[11],99.7%
same,"viability, T/C",[12],96.4%
same,"viability, T/C",[30],81.8%
same,"viability, T/C",[31],80.2%
same,"viability, T/C",[32],83.4%
same,"viability, T/C",[33],83.2%
same,"viability, T/C",[34],82.5%
same,"viability, T/C","second compound 10 µM, first compound 0.1 µM",78%
CC(C)NCC(C(=O)N1CCN(c2ncnc3c2C(C)CC3O)CC1)c1ccc(Cl)cc1 (configuration not stated),"viability, T/C",compound 0.0316 µM,94.6% [middle of 5 runs]
same,"viability, T/C",compound 0.1 µM,85.2% [middle of 5 runs]
same,"viability, T/C",compound 0.316 µM,83.1% [middle of 5 runs]
same,"viability, T/C",compound 1 µM,77% [middle of 5 runs]
same,"viability, T/C",compound 3.16 µM,76.1% [middle of 5 runs]
same,"viability, T/C",compound 10 µM,70.1% [middle of 5 runs]
same,pIC50,curve of compound,< 5.00
CC(=O)Nc1cccc(-n2c(=O)n(C3CC3)c(=O)c3c(Nc4ccc(I)cc4F)n(C)c(=O)c(C)c32)c1 + COc1cc2nc(C)nc(NC(C)c3cc(N)cc(C(F)(F)F)c3)c2cc1OC1CCOC1,pIC50,[1],7.78
same,pIC50,[2],7.99
same,pIC50,[3],7.91
same,pIC50,[4],8.21
same,pIC50,[13],> 10.00
same,"viability, T/C","second compound 0.1 µM, first compound 0.0001 µM",88%
same,"viability, T/C",[14],88.4%
same,"viability, T/C",[15],92.4%
same,"viability, T/C",[16],81.7%
same,"viability, T/C",[17],60.7%
same,"viability, T/C",[5],36.9%
same,"viability, T/C","second compound 0.316 µM, first compound 0.0001 µM",88.1%
same,"viability, T/C",[18],83.6%
same,"viability, T/C",[19],75.3%
same,"viability, T/C",[20],67.1%
same,"viability, T/C",[21],48.8%
same,"viability, T/C",[7],37.4%
same,"viability, T/C","second compound 1 µM, first compound 0.0001 µM",81.4%
same,"viability, T/C",[22],86.6%
same,"viability, T/C",[23],81.1%
same,"viability, T/C",[24],67.5%
same,"viability, T/C",[25],55.4%
same,"viability, T/C",[9],31.8%
same,"viability, T/C","second compound 3.16 µM, first compound 0.0001 µM",72.6%
same,"viability, T/C",[26],79.3%
same,"viability, T/C",[27],76.7%
same,"viability, T/C",[28],54.6%
same,"viability, T/C",[29],45.5%
same,"viability, T/C",[11],21.8%
same,"viability, T/C","second compound 10 µM, first compound 0.0001 µM",20.7%
same,"viability, T/C",[30],21.2%
same,"viability, T/C",[31],10.6%
same,"viability, T/C",[32],1.6%
same,"viability, T/C",[33],4.51%
same,"viability, T/C",[34],2.2%
